# Experimental data from ChEMBL document CHEMBL3286154, “Oxabicyclooctane-linked novel bacterial topoisomerase inhibitors as broad spectrum antibacterial agents” (ACS Med Chem Lett, 2014).
# Active and inactive are the calls of the source. The calls are words filed in the database; no cut-off is given here.
# Columns and labels:
# [1] = Inhibition of Staphylococcus aureus DNA topoisomerase 4
# [2] = Solubility of the compound in PBS at pH 2; format: physicochemical
# [3] = Volume of distribution at steady state in C57BL/6 mouse at 1 mg/kg, iv and 2 mg/kg, po; format: ADME, organism-based; details: in vivo, read-out: Vdss
# [4] = Inhibition of Escherichia coli gyrase
# [5] = tested on: Liver microsome; experiment: Metabolic stability in dog liver microsomes after 30 to 60 mins; format: ADME, Canis lupus familiaris
# [6] = tested on: Escherichia coli; experiment: Antibacterial activity against Escherichia coli infected in iv dosed ICR mouse assessed as increase in mouse survival after 7 days; format: functional; details: 168 h
# [7] = tested on: Haemophilus influenzae; experiment: Antibacterial activity against Haemophilus influenzae; format: functional
# [8] = tested on: Enterococcus faecium; experiment: Antibacterial activity against vancomycin-resistant Enterococcus faecium; format: functional
# [9] = Unbound fraction in mouse plasma; format: ADME, cell-free
# [10] = tested on: Acinetobacter baumannii; experiment: Antibacterial activity against Acinetobacter baumannii; format: functional
# [11] = Solubility of the compound in PBS at pH 7; format: physicochemical
# [12] = tested on: Canis familiaris; experiment: Dose normalized AUC in beagle dog at 1 mg/kg, iv and 2 mg/kg, po; format: ADME, organism-based, Canis lupus familiaris; details: in vivo
# [13] = Oral bioavailability in C57BL/6 mouse at 2 mg/kg; format: ADME, organism-based; details: in vivo
# [14] = Half life in beagle dog at 1 mg/kg, iv and 2 mg/kg, po; format: ADME, organism-based, Canis lupus familiaris; details: in vivo
# [15] = tested on: Escherichia coli; experiment: Antibacterial activity against Escherichia coli; format: functional
# [16] = Half life in C57BL/6 mouse at 1 mg/kg, iv and 2 mg/kg, po; format: ADME, organism-based; details: in vivo
# [17] = Oral bioavailability in beagle dog at 2 mg/kg; format: ADME, organism-based, Canis lupus familiaris; details: in vivo
# [18] = Inhibition of Escherichia coli topoisomerase 4
# [19] = Unbound fraction in dog plasma; format: ADME, cell-free, Canis lupus familiaris
# [20] = tested on: Staphylococcus aureus; experiment: Antibacterial activity against quinolone-sensitive Staphylococcus aureus; format: functional
# [21] = tested on: Mus musculus; experiment: Dose normalized AUC in C57BL/6 mouse at 1 mg/kg, iv and 2 mg/kg, po; format: ADME, organism-based; details: in vivo
# [22] = tested on: Staphylococcus aureus; experiment: Antibacterial activity against methicillin-sensitive Staphylococcus aureus; format: functional
# [23] = tested on: Staphylococcus aureus; experiment: Antibacterial activity against Staphylococcus aureus in presence of 50% human serum; format: functional, organism-based
# [24] = tested on: Staphylococcus aureus; experiment: Antibacterial activity against quinolone-resistant Staphylococcus aureus; format: functional
# [25] = Plasma clearance in C57BL/6 mouse at 1 mg/kg, iv and 2 mg/kg, po; format: ADME, organism-based
# [26] = tested on: Staphylococcus aureus; experiment: Antibacterial activity against Staphylococcus aureus in presence of 500 ug/ml sheared DNA; format: functional, organism-based
# [27] = tested on: Pseudomonas aeruginosa; experiment: Antibacterial activity against Pseudomonas aeruginosa; format: functional
# [28] = Plasma clearance in beagle dog at 1 mg/kg, iv and 2 mg/kg, po; format: ADME, organism-based, Canis lupus familiaris
# [29] = target: DNA gyrase (Staphylococcus aureus, UniProt P0A0K8+P20831); experiment: Inhibition of Staphylococcus aureus DNA gyrase; format: protein-complex assay
# [30] = Volume of distribution at steady state in beagle dog at 1 mg/kg, iv and 2 mg/kg, po; format: ADME, organism-based, Canis lupus familiaris; details: in vivo, read-out: Vdss
# [31] = tested on: Liver; experiment: Metabolic stability in mouse liver microsomes after 30 to 60 mins; format: ADME
# [32] = tested on: Liver microsome; experiment: Metabolic stability in human liver microsomes after 30 to 60 mins; format: ADME
# [33] = tested on: Moraxella catarrhalis; experiment: Antibacterial activity against Moraxella catarrhalis; format: functional
# [34] = tested on: Staphylococcus aureus; experiment: Antibacterial activity against Staphylococcus aureus ATCC 29213 assessed as reduction of colony forming units using > 10^5 CFU/ml inoculum at 0.06 to 0.12 ug/ml by time kill experiment; format: functional
# [35] = tested on: Enterococcus faecalis; experiment: Antibacterial activity against Enterococcus faecalis; format: functional
# [36] = tested on: Escherichia coli; experiment: Antibacterial activity against Escherichia coli infected in po dosed ICR mouse assessed as increase in mouse survival after 7 days; format: functional; details: 168 h
# [37] = tested on: Streptococcus pneumoniae; experiment: Antibacterial activity against Streptococcus pneumoniae; format: functional
# [38] = tested on: Staphylococcus aureus; experiment: Antibacterial activity against Staphylococcus aureus infected in po dosed ICR mouse assessed as increase in mouse survival after 7 days; format: functional; details: 168 h
# [39] = tested on: Staphylococcus aureus; experiment: Antibacterial activity against methicillin-resistant Staphylococcus aureus; format: functional
# [40] = tested on: Staphylococcus aureus; experiment: Antibacterial activity against Staphylococcus aureus infected in iv dosed ICR mouse assessed as increase in mouse survival after 7 days; format: functional; details: 168 h
# [41] = Unbound fraction in human plasma; format: ADME, cell-free
# [42] = tested on: Staphylococcus aureus; experiment: Inhibition of DNA synthesis in Staphylococcus aureus using radioligand at 0.001 to 1 ug/ml by scintillation counting
# Chain of DNA gyrase (P0A0K8 whole entry): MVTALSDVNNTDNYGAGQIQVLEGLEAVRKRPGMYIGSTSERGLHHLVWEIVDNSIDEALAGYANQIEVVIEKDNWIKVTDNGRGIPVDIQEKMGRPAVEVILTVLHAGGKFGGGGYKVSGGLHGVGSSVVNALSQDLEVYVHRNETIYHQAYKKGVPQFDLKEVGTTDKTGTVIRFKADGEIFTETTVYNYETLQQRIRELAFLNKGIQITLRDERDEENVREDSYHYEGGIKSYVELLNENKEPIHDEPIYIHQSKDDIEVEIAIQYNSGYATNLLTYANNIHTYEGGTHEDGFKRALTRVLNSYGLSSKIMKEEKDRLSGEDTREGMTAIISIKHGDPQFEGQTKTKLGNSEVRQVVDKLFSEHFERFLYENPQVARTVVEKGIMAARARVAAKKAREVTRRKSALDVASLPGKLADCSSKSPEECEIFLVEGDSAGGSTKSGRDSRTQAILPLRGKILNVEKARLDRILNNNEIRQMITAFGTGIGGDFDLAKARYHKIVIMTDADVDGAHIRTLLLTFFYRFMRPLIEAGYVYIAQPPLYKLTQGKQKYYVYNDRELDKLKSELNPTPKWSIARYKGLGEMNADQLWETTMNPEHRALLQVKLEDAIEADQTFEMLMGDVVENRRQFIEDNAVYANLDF
# Chain of DNA gyrase (P20831 whole entry): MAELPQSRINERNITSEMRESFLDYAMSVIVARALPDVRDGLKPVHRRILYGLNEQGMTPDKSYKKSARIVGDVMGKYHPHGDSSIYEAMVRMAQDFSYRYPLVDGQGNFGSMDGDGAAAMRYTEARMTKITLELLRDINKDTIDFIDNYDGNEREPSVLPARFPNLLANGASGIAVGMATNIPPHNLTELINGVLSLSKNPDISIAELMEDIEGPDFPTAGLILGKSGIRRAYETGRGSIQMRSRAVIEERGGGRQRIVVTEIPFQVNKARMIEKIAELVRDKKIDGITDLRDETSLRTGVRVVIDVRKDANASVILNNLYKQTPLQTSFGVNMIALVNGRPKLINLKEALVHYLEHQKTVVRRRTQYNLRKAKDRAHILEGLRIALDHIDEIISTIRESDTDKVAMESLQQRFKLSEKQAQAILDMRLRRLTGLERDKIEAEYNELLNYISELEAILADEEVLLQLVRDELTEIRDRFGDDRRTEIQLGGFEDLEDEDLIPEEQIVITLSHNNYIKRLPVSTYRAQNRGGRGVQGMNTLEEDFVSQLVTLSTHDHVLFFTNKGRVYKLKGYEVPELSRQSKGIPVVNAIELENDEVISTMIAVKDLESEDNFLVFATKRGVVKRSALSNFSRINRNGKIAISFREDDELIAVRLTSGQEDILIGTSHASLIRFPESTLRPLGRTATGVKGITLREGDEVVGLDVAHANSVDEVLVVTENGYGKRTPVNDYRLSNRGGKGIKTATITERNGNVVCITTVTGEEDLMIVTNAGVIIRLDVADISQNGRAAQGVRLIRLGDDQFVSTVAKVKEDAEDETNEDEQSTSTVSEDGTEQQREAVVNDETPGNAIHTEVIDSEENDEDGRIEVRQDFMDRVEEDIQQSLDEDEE
smiles,measurement,setting,value
COc1ccc2ncc(F)c(C[C@H](O)C34CCC(NCc5ccc6c(n5)NC(=O)CO6)(CC3)CO4)c2n1.Cl,IC50,[1],10400 nM
same,solubility,[2],200 µM
same,Vd,[3],1.61 L/kg
same,IC50,[4],780 nM
same,Stability,[5],Stable
same,ED50,[6],23 mg/kg
same,MIC,[7],0.5 µg/mL
same,MIC,[8],0.5 µg/mL
same,fraction unbound,[9],> 0.25
same,MIC,[10],0.5 µg/mL
same,solubility,[11],154 µM
same,AUC/dose,[12],3.57 µM·h
same,bioavailability,[13],30.1%
same,half-life,[14],4.49 h
same,MIC,[15],2 µg/mL
same,half-life,[16],1.7 h
same,bioavailability,[17],40.4%
same,IC50,[18],500 nM
same,fraction unbound,[19],> 0.25
same,MIC,[20],0.06 µg/mL
same,AUC/dose,[21],0.76 µM·h/mpk
same,MIC,[22],0.02 µg/mL
same,Activity,[23],Active
same,MIC,[24],0.25 µg/mL
same,clearance,[25],43.3 mL/min/kg
same,Activity,[26],Active
same,MIC,[27],8 µg/mL
same,clearance,[28],9.16 mL/min/kg
same,IC50,[29],1020 nM
same,Vd,[30],2.6 L/kg
same,Stability,[31],Stable
same,Stability,[32],Stable
same,MIC,[33],0.015 µg/mL
same,log10cfu,[34],>3
same,MIC,[35],0.5 µg/mL
same,ED50,[36],85 mg/kg
same,MIC,[37],0.05 µg/mL
same,ED50,[38],2.2 mg/kg
same,MIC,[39],0.06 µg/mL
same,ED50,[40],2.5 mg/kg
same,fraction unbound,[41],> 0.25
COc1ccc2ncc(F)c(C[C@@H](O)C34CCC(NCc5ccc6c(n5)NC(=O)CO6)(CC3)CO4)c2n1.Cl,Vd,[3],4.94 L/kg
same,Stability,[5],Stable
same,MIC,[8],2 µg/mL
same,fraction unbound,[9],> 0.25
same,MIC,[10],1 µg/mL
same,bioavailability,[13],25.3%
same,MIC,[15],4 µg/mL
same,half-life,[16],2.15 h
same,fraction unbound,[19],> 0.25
same,MIC,[20],0.06 µg/mL
same,AUC/dose,[21],0.68 µM·h/mpk
same,MIC,[22],0.06 µg/mL
same,Activity,[23],Active
same,MIC,[24],0.5 µg/mL
same,clearance,[25],48.7 mL/min/kg
same,Activity,[26],Active
same,MIC,[27],8 µg/mL
same,Stability,[31],Stable
same,Stability,[32],Stable
same,MIC,[35],1 µg/mL
same,MIC,[37],0.25 µg/mL
same,ED50,[38],4.5 mg/kg
same,MIC,[39],0.5 µg/mL
same,ED50,[40],3.5 mg/kg
same,fraction unbound,[41],> 0.25
COc1ccc2ncc(F)c(CCC34CCC(NCc5ccc6c(n5)NC(=O)CO6)(CC3)CO4)c2n1.Cl,IC50,[1],4400 nM
same,solubility,[2],20.3 µM
same,Vd,[3],2.22 L/kg
same,IC50,[4],180 nM
same,Stability,[5],Stable
same,MIC,[7],1 µg/mL
same,MIC,[8],0.5 µg/mL
same,fraction unbound,[9],< 0.02
same,MIC,[10],0.5 µg/mL
same,solubility,[11],< 0.89 µM
same,AUC/dose,[12],0.43 µM·h
same,bioavailability,[13],71.6%
same,inhibition,[42],Active
same,half-life,[14],1.85 h
same,MIC,[15],1 µg/mL
same,half-life,[16],2.24 h
same,bioavailability,[17],> 100%
same,IC50,[18],200 nM
same,fraction unbound,[19],< 0.02
same,MIC,[20],0.016 µg/mL
same,AUC/dose,[21],0.98 µM·h/mpk
same,MIC,[22],0.016 µg/mL
same,Activity,[23],inactive
same,MIC,[24],0.064 µg/mL
same,clearance,[25],34.6 mL/min/kg
same,Activity,[26],inactive
same,MIC,[27],4 µg/mL
same,clearance,[28],39.8 mL/min/kg
same,IC50,[29],220 nM
same,Vd,[30],5.36 L/kg
same,Stability,[31],Stable
same,Stability,[32],Stable
same,MIC,[35],1 µg/mL
same,MIC,[37],0.064 µg/mL
same,ED50,[38],17 mg/kg
same,MIC,[39],0.008 µg/mL
same,ED50,[40],5.5 mg/kg
same,fraction unbound,[41],< 0.02
